From paper PMC5769417, “Single- and Multiple-Dose Trials to Determine the Pharmacokinetics, Safety, Tolerability, and Sex Effect of Oral Ginsenoside Compound K in Healthy Chinese Volunteers” (Frontiers in Pharmacology, 2018)
Values joined by “and” are separate entries in the source; they are usually repeats but may differ in a detail not shown here. Identical values can stand only once.

Assays:
CYP2C9 = test system: CYP2C9; set-up: method as in Xiao et al., 2016; settings: human liver microsomes, human recombinant CYPs; ref Xiao et al., 2016; cited from earlier work
CYP3A4 = test system: CYP3A4; set-up: method as in Xiao et al., 2016; settings: human liver microsomes, human recombinant CYPs; ref Xiao et al., 2016; cited from earlier work
[1] = Single-dose trial, cumulative urine excretion; format: in vivo, human; settings: fasting, urine 0–48 h
Method: Single-dose pharmacokinetics: In the 25 and 50 mg dose groups, serial blood samples were collected at pre-dose (t = 0) and at 0.25, 0.5, 1, 1.5, 2, 2.5, 3, 3.5, 4, 5, 6, 8, 12, 24, 36, and 48 h post-dose. From the 100 to 800 mg dose groups, blood samples were additionally collected at 72 and 96 h post-dose. Plasma was separated from whole blood by refrigerated centrifugation (3,000 rpm, 10 min), within 1 h after sampling, transferred to labeled storage tubes, and stored at −70°C prior to workup and analysis. Urine samples were collected at different time periods: 0–2, 2–4, 4–6, 6–8, 8–10, 10–12, 12–24, and 24–48 h post-dose and the volume was measured immediately after collection from each subject. We preserved 8 ml specimens into 10 ml centrifuge tubes and stored at −70°C for PK assessment.
The processing method of the urine samples was similar to the method used for the plasma samples. For CK, the only difference was in the mobile phase (acetonitrile: 10 mM aqueous ammonium acetate = 50:50, V/V, for plasma samples; acetonitrile: 20 mM aqueous ammonium acetate = 60:40, V/V, for urine samples; acetonitrile, Merck KGaA, Darmstadt, Germany; ammonium acetate, CNW technologies GmbH, Duesseldorf, Germany). As for 20(S)-PPD, neither the IS nor the mobile phase were the same (IS: coumarin for plasma samples and finasteride for urine samples; mobile phase was acetonitrile: 10 mM aqueous ammonium acetate = 50: 50, V/V, for plasma samples, and acetonitrile: 0.1% formic acid aqueous solution = 50: 50, V/V, for urine samples). The calibration curve range for CK was linear from 1.00 to 1002.0 ng·ml^−1 with a correlation coefficient equal to 0.9984, and from 0.15 to 54.30 ng·ml^−1 with a correlation coefficient equal to 0.9978 for 20(S)-PPD. Three levels of QC samples (2.00, 50.10, or 801.60 ng.ml^−1 CK) were prepared in urine for testing accuracy and coefficient of variations (CVs), and the values were 94–103% and 1.06–6.54%, respectively.
Experimental observations provided the plasma CK and 20(S)-PPD concentrations vs. the time data after single-dose administration, including maximum plasma concentration (Cmax) and the time to maximum plasm concentration (Tmax). The area under the curve (AUC) from time zero to the last time point (AUClast) and the AUC extrapolated to infinity (AUCinf) were calculated using the linear trapezoidal rule. The slope (elimination rate constant, K) of the terminal phase of the plasma concentration-time profile was determined, using a weighting factor of 1, by the method of least squares (log-linear regression of at least three data points). The t1/2 was estimated as (ln2)/K. The apparent plasma clearance of the drug after oral administration (CL/F) was expressed as a function of bioavailability (F) and calculated as the dose divided by AUCinf, assuming that the complete systemic bioavailability F = 1. The apparent volume of distribution (V/F) was equal to (CL/F)/K. The mean residence time (MRT) was calculated as the area under the first moments curve (AUMC) divided by AUC. The dose-normalized PK parameters e.g., Cmax/D and AUClast/D, were obtained by dividing each PK result by the administered dose. The cumulative excretion rate was calculated as the amount of unchanged drug in the urine over a time interval divided by the dose and was expressed as thousand points (‰).

CC(C)=CCC[C@](C)(OC1O[C@H](CO)[C@@H](O)[C@H](O)[C@H]1O)[C@H]1CC[C@]2(C)[C@@H]1[C@H](O)C[C@@H]1[C@@]3(C)CC[C@H](O)C(C)(C)[C@@H]3CC[C@]12C (stereo partly drawn) [CK, 20-O-beta-D-glucopyranosyl-20(S)-protopanaxadiol]
inhibition of CYP2C9 (CYP2C9): moderate inhibitor | substrate of CYP2C9 (CYP2C9): substrate | inhibition of CYP3A4 (CYP3A4): moderate inhibitor | substrate of CYP3A4 (CYP3A4): substrate | Ae, accumulative urine excretion rate ([1]; 25 mg oral): 0.41 ± 0.29 ‰ | Ae, accumulative urine excretion rate ([1]; 50 mg oral): 0.46 ‰ and 0.46 ± 0.34 ‰ | Ae, accumulative urine excretion rate ([1]; 100 mg oral): 0.25 ± 0.13 ‰ | Ae, accumulative urine excretion rate ([1]; 200 mg oral): 0.27 ± 0.15 ‰ | Ae, accumulative urine excretion rate ([1]; 400 mg oral): 0.19 ± 0.13 ‰ | Ae, accumulative urine excretion rate ([1]; 600 mg oral): 0.10 ‰ and 0.10 ± 0.08 ‰ | Ae, accumulative urine excretion rate ([1]; 800 mg oral): 0.10 ‰ and 0.10 ± 0.04 ‰
